Data from PubChem BioAssay AID330 (DTP/NCI, 2004).
Where “and” joins values, the source holds several entries; their conditions need not be identical. Equal values may be shown once. Inconclusive results and toxic doses are left out.

Test system: P388 leukemia ip, CD2F1 mice, survival T/C
Test: NCI In Vivo Anticancer Drug Screen. Data for tumor model P388 Leukemia (intraperitoneal) in CD2F1 (CDF1) mice
Conditions: endpoint: median survival time, higher = longer survival
Outline: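 Mice carrying the transplanted tumor received test compound or vehicle. Survival was recorded in each group, and the value is the treated-group measurement divided by that of the vehicle-treated control group.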

For `CN(Cc1cnc2nc(N)nc(N)c2n1)c1ccc(C(=O)N[C@@H](CCC(=O)O)C(=O)O)cc1`, the T/C (dose: 0.09 mg/kg/injection, schedule: Q01DX009 (ip), vehicle: sodium bicarbonate) was 120 % of control, the T/C (dose: 0.18 mg/kg/injection, schedule: Q01DX009 (ip), vehicle: sodium bicarbonate) was 113 % of control and the T/C (dose: 0.25 mg/kg/injection, schedule: Q01DX005 (ip), vehicle: sodium bicarbonate) was 117 % of control. The T/C (dose: 0.25 mg/kg/injection, schedule: Q01DX009 (ip), vehicle: sodium bicarbonate) was 150 % of control and 154 % of control, the T/C (dose: 0.32 mg/kg/injection, schedule: Q01DX009 (ip), vehicle: sodium bicarbonate) was 166 % of control and 168 % of control and the T/C (dose: 0.38 mg/kg/injection, schedule: Q01DX009 (ip), vehicle: other) was 163 % of control. The T/C (dose: 0.38 mg/kg/injection, schedule: Q01DX009 (ip), vehicle: saline) was 169 % of control, the T/C (dose: 0.38 mg/kg/injection, schedule: Q## X009 (ip), vehicle: sodium bicarbonate) was 154 % of control and the T/C (dose: 0.48 mg/kg/injection, schedule: Q01DX009 (ip), vehicle: sodium bicarbonate) was 168 % of control. The T/C (dose: 0.5 mg/kg/injection, schedule: Q01DX009 (ip), vehicle: sodium bicarbonate) was 176 % of control and 177 % of control, the T/C (dose: 0.54 mg/kg/injection, schedule: Q01DX009 (ip), vehicle: sodium bicarbonate) was 175 % of control and 180 % of control and the T/C (dose: 0.6 mg/kg/injection, schedule: Q01DX009 (ip), vehicle: clinical formulation) was 164 % of control. For the same molecule, the T/C (dose: 0.62 mg/kg/injection, schedule: Q01DX005 (ip), vehicle: sodium bicarbonate) was 158 % of control, the T/C (dose: 0.73 mg/kg/injection, schedule: Q01DX009 (ip), vehicle: sodium bicarbonate) was 184 % of control and the T/C (dose: 0.75 mg/kg/injection, schedule: Q01DX005 (ip), vehicle: sodium bicarbonate) was 166 % of control. The T/C (dose: 0.75 mg/kg/injection, schedule: Q01DX009 (ip), vehicle: other) was 195 % of control, the T/C (dose: 0.75 mg/kg/injection, schedule: Q01DX009 (ip), vehicle: saline) was 200 % of control and the T/C (dose: 0.75 mg/kg/injection, schedule: Q01DX015 (ip), vehicle: sodium bicarbonate) was 186 % of control. The T/C (dose: 0.75 mg/kg/injection, schedule: Q## X009 (ip), vehicle: sodium bicarbonate) was 190 % of control, the T/C (dose: 0.8 mg/kg/injection, schedule: Q01DX009 (ip), vehicle: clinical formulation) was 164 % of control and the T/C (dose: 1.0 mg/kg/injection, schedule: Q01DX009 (ip), vehicle: clinical formulation) was 180 % of control. For the same molecule, the T/C (dose: 1.0 mg/kg/injection, schedule: Q01DX009 (ip), vehicle: sodium bicarbonate) was 177 % of control and 194 % of control and 195 % of control, the T/C (dose: 1.0 mg/kg/injection, schedule: Q02DX005 (ip), vehicle: sodium bicarbonate) was 160 % of control and the T/C (dose: 1.1 mg/kg/injection, schedule: Q01DX009 (ip), vehicle: sodium bicarbonate) was 192 % of control. The T/C (dose: 1.2 mg/kg/injection, schedule: Q01DX009 (ip), vehicle: clinical formulation) was 189 % of control, the T/C (dose: 1.25 mg/kg/injection, schedule: Q01DX005 (ip), vehicle: sodium bicarbonate) was 182 % of control and the T/C (dose: 1.3 mg/kg/injection, schedule: Q01DX009 (ip), vehicle: sodium bicarbonate) was 196 % of control. For the same molecule, the T/C (dose: 1.5 mg/kg/injection, schedule: Q01DX005 (ip), vehicle: sodium bicarbonate) was 182 % of control, the T/C (dose: 1.7 mg/kg/injection, schedule: Q01DX009 (ip), vehicle: sodium bicarbonate) was 106 % of control and the T/C (dose: 1.75 mg/kg/injection, schedule: Q01DX005 (ip), vehicle: sodium bicarbonate) was 182 % of control. The T/C (dose: 2.0 mg/kg/injection, schedule: Q01DX005 (iv), vehicle: sodium bicarbonate) was 161 % of control, the T/C (dose: 2.0 mg/kg/injection, schedule: Q02DX005 (ip), vehicle: saline) was 105 % of control and the T/C (dose: 2.0 mg/kg/injection, schedule: Q02DX005 (ip), vehicle: sodium bicarbonate) was 163 % of control and 192 % of control. For the same molecule, the T/C (dose: 2.3 mg/kg/injection, schedule: Q04DX003 (ip), vehicle: saline) was 181 % of control, the T/C (dose: 2.5 mg/kg/injection, schedule: Q01DX005 (ip), vehicle: sodium bicarbonate) was 187 % of control and the T/C (dose: 2.5 mg/kg/injection, schedule: Q01DX006 (ip), vehicle: sodium bicarbonate) was 179 % of control. The T/C (dose: 2.5 mg/kg/injection, schedule: Q04DX003 (ip), vehicle: sodium bicarbonate) was 183 % of control, the T/C (dose: 3.0 mg/kg/injection, schedule: Q01DX006 (ip), vehicle: sodium bicarbonate) was 170 % of control and the T/C (dose: 3.0 mg/kg/injection, schedule: Q01DX015 (ip), vehicle: sodium bicarbonate) was 110 % of control. The T/C (dose: 3.0 mg/kg/injection, schedule: Q02DX005 (ip), vehicle: saline) was 105 % of control, the T/C (dose: 3.0 mg/kg/injection, schedule: Q02DX005 (ip), vehicle: sodium bicarbonate) was 182 % of control and the T/C (dose: 3.0 mg/kg/injection, schedule: Q## X009 (ip), vehicle: sodium bicarbonate) was 118 % of control. The T/C (dose: 3.13 mg/kg/injection, schedule: Q01DX001 (ip), vehicle: sodium bicarbonate) was 122 % of control, the T/C (dose: 3.5 mg/kg/injection, schedule: Q01DX006 (ip), vehicle: sodium bicarbonate) was 187 % of control and the T/C (dose: 4.0 mg/kg/injection, schedule: Q01DX005 (iv), vehicle: sodium bicarbonate) was 190 % of control. The T/C (dose: 4.32 mg/kg/injection, schedule: Q04DX003 (ip), vehicle: sodium bicarbonate) was 171 % of control, the T/C (dose: 4.5 mg/kg/injection, schedule: Q04DX003 (ip), vehicle: sodium bicarbonate) was 174 % of control and the T/C (dose: 4.6 mg/kg/injection, schedule: Q04DX003 (ip), vehicle: saline) was 204 % of control. The T/C (dose: 5.0 mg/kg/injection, schedule: Q04DX003 (ip), vehicle: sodium bicarbonate) was 189 % of control, the T/C (dose: 5.18 mg/kg/injection, schedule: Q04DX003 (ip), vehicle: sodium bicarbonate) was 180 % of control and the T/C (dose: 6.48 mg/kg/injection, schedule: Q04DX003 (ip), vehicle: sodium bicarbonate) was 182 % of control. The T/C (dose: 7.2 mg/kg/injection, schedule: Q04DX003 (ip), vehicle: sodium bicarbonate) was 199 % of control, the T/C (dose: 7.78 mg/kg/injection, schedule: Q04DX002 (ip), vehicle: sodium bicarbonate) was 171 % of control and the T/C (dose: 8.64 mg/kg/injection, schedule: Q04DX003 (ip), vehicle: sodium bicarbonate) was 201 % of control. For the same molecule, the T/C (dose: 9.0 mg/kg/injection, schedule: Q04DX003 (ip), vehicle: sodium bicarbonate) was 116 % of control, the T/C (dose: 9.0 mg/kg/injection, schedule: Q04DX003 (iv), vehicle: sodium bicarbonate) was 174 % of control and the T/C (dose: 9.72 mg/kg/injection, schedule: Q04DX002 (ip), vehicle: sodium bicarbonate) was 175 % of control. The T/C (dose: 10.0 mg/kg/injection, schedule: Q04DX004 (ip), vehicle: sodium bicarbonate) was 189 % of control, the T/C (dose: 10.8 mg/kg/injection, schedule: Q04DX003 (ip), vehicle: sodium bicarbonate) was 202 % of control and the T/C (dose: 13.0 mg/kg/injection, schedule: Q04DX002 (ip), vehicle: sodium bicarbonate) was 165 % of control. For the same molecule, the T/C (dose: 14.4 mg/kg/injection, schedule: Q04DX003 (ip), vehicle: sodium bicarbonate) was 181 % of control, the T/C (dose: 15.0 mg/kg/injection, schedule: Q04DX003 (ip), vehicle: sodium bicarbonate) was 117 % of control and the T/C (dose: 16.2 mg/kg/injection, schedule: Q04DX002 (ip), vehicle: sodium bicarbonate) was 195 % of control. For the same molecule, the T/C (dose: 18.0 mg/kg/injection, schedule: Q01DX001 (ip), vehicle: sodium bicarbonate) was 173 % of control, the T/C (dose: 18.0 mg/kg/injection, schedule: Q04DX003 (ip), vehicle: sodium bicarbonate) was 114 % of control and the T/C (dose: 18.0 mg/kg/injection, schedule: Q04DX003 (iv), vehicle: sodium bicarbonate) was 194 % of control. For the same molecule, the T/C (dose: 18.4 mg/kg/injection, schedule: Q04DX003 (ip), vehicle: saline) was 177 % of control, the T/C (dose: 20.0 mg/kg/injection, schedule: Q04DX004 (ip), vehicle: sodium bicarbonate) was 189 % of control and the T/C (dose: 21.6 mg/kg/injection, schedule: Q04DX002 (ip), vehicle: sodium bicarbonate) was 191 % of control. The T/C (dose: 25.0 mg/kg/injection, schedule: Q04DX002 (ip), vehicle: sodium bicarbonate) was 115 % of control, the T/C (dose: 25.0 mg/kg/injection, schedule: Q04DX004 (ip), vehicle: sodium bicarbonate) was 180 % of control and the T/C (dose: 27.0 mg/kg/injection, schedule: Q04DX002 (ip), vehicle: sodium bicarbonate) was 201 % of control. For the same molecule, the T/C (dose: 33.3 mg/kg/injection, schedule: Q01DX001 (ip), vehicle: sodium bicarbonate) was 109 % of control, the T/C (dose: 36.0 mg/kg/injection, schedule: Q01DX001 (ip), vehicle: sodium bicarbonate) was 150 % of control and the T/C (dose: 36.0 mg/kg/injection, schedule: Q01DX001 (iv), vehicle: sodium bicarbonate) was 156 % of control. For the same molecule, the T/C (dose: 36.0 mg/kg/injection, schedule: Q04DX003 (iv), vehicle: sodium bicarbonate) was 124 % of control, the T/C (dose: 40.0 mg/kg/injection, schedule: Q01DX001 (ip), vehicle: sodium bicarbonate) was 150 % of control and the T/C (dose: 42.0 mg/kg/injection, schedule: Q04DX002 (ip), vehicle: sodium bicarbonate) was 105 % of control. For the same molecule, the T/C (dose: 45.0 mg/kg/injection, schedule: Q04DX002 (ip), vehicle: sodium bicarbonate) was 200 % of control, the T/C (dose: 50.0 mg/kg/injection, schedule: Q04DX003 (ip), vehicle: sodium bicarbonate) was 111 % of control and the T/C (dose: 72.0 mg/kg/injection, schedule: Q01DX001 (iv), vehicle: sodium bicarbonate) was 161 % of control. For the same molecule, the T/C (dose: 100.0 mg/kg/injection, schedule: Q01DX001 (ip), vehicle: sodium bicarbonate) was 158 % of control and 161 % of control, the T/C (dose: 125.0 mg/kg/injection, schedule: Q01DX001 (ip), vehicle: sodium bicarbonate) was 166 % of control and the T/C (dose: 150.0 mg/kg/injection, schedule: Q01DX001 (ip), vehicle: sodium bicarbonate) was 158 % of control. The T/C (dose: 200.0 mg/kg/injection, schedule: Q01DX001 (ip), vehicle: sodium bicarbonate) was 170 % of control and the T/C (dose: 400.0 mg/kg/injection, schedule: Q01DX001 (ip), vehicle: sodium bicarbonate) was 181 % of control.
